# Measured values from paper PMC10247784, “Physiological activation of human and mouse bitter taste receptors by bile acids” (Communications Biology, 2023).
# Several values for one entry are separate records, joined by “and”; a condition that tells them apart may be missing. Equal values may be shown once.
# Biological target: T1, human TAS2R1 (Homo sapiens, UniProt Q9NYW7)
# T1 construct: expressed in transfected cells; host or cells: HEK293T-Gα16gust44
# T1 sequence (Q9NYW7 1-299): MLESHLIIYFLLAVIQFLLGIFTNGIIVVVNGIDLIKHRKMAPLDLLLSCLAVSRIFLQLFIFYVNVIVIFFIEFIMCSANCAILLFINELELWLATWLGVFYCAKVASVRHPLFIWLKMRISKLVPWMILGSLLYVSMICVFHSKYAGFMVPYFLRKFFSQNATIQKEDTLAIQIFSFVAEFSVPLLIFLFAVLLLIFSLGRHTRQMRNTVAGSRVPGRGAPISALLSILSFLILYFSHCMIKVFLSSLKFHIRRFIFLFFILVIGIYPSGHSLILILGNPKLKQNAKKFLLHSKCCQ
# Experiment: Calcium imaging assay (FLIPR), HEK293T-Gα16gust44 cells transfected with human TAS2R1
# Type: cell-based
# Description: This set of bile acids was chosen because of their commercial availability in high purities, their diversity within the class of bile acids and their previous detection and quantitation in human blood. Stock solutions were prepared in DMSO.
# As basal growth medium for the HEK293T-Gα16gust44 cell line[17],[59] served Dulbecco’s modified eagle medium (DMEM) (Thermo Fisher Scientific, Darmstadt, Germany) supplemented with 10 % fetal bovine serum (Sigma-Aldrich, Steinheim, Germany), 2 mM L-glutamine (Sigma-Aldrich, Steinheim, Germany), 100 units/ml penicillin (Sigma Aldrich, Steinheim, Germany) and 100 µg/ml streptomycin (Sigma Aldrich, Steinheim, Germany). Growth conditions were 37 °C, 5 % CO2 and saturated air-humidity[60].
# HEK293T-Gα16gust44 cells were seeded on poly-D-lysine (10 µg/ml) coated 96-well plates to reach a confluence of 40-60 % the next day. For transient transfection 150 ng of plasmid DNA containing the receptor of interest and 0.3 µl lipofectamine 2000 (Thermo Fisher Scientific, Darmstadt, Germany) per well were used and transfection took place according to the manual of lipofectamine 2000. […] The empty vector DNA (mock) was transfected as negative control[14],[41].
# Cells were loaded using the calcium-sensitive fluorescent dye Fluo-4-AM (Abcam, Cambridge, Great Britain) in the presence of 2.5 mM probenecid (Sigma-Aldrich, Steinheim, Germany) the day after transfection[13],[41]. 1 h after loading, cells were washed with C1 buffer using a BioTek Cell Washer, incubated in the dark for half an hour and washed again. For automated agonist application and measurement of fluorescence changes, a FLIPR^TETRA device (Molecular Devices, San José, United States) was used. Viability of cells was tested by application of 100 nM Somatostatin 14 (Bachem, Bubendorf, Switzerland)[42].
# Measured data were negative control corrected by subtracting the signal of the mock-transfected cells and exported to Microsoft Excel using the FLIPR software ScreenWorks 4.2. In Microsoft Excel software, standardization of maximum fluorescence intensities to the basal fluorescence and normalization to the buffer-only control was done to calculate the relative fluorescence changes (ΔF/F).
# Initial screening experiments performed in duplicate wells were confirmed by at least one replication and representative traces were selected for display. All dose-response relationships were determined by three independent experiments (biological replicates) performed in duplicates (technical replicates). Threshold concentrations, defined as lowest substance concentrations leading to statistically significant elevated fluorescence changes in receptor-transfected cells compared with empty vector-transfected cells, were determined using SigmaPlot with Student’s t-test to evaluate statistical significance (p < 0.01).
smiles,measurement,setting,value
"C[C@H](CCC(=O)NCC(=O)O)[C@H]1CC[C@H]2[C@@H]3[C@H](O)C[C@@H]4C[C@H](O)CC[C@]4(C)[C@H]3C[C@H](O)[C@]12C [Glycocholic Acid, glycocholic acid]",Efficacy = maximal amplitude (ΔF/F),"TAS2R1, bile acids, mean",0.1325
same,"Efficacy (maximal amplitude ΔF/F), individual data points","TAS2R1, bile acids, single replicates, listed as GCA",0.1311 and 0.1247 and 0.1416
same,RLU,Time 0 s (second time grid),0 RLU
same,RLU,Time 2 s,1.34 RLU
same,RLU,Time 4 s,-10.9328 RLU
same,RLU,Time 6 s,-2.093 RLU
same,RLU,Time 8 s,-18.797 RLU
same,RLU,Time 12 s,-1.765 RLU
same,RLU,Time 14 s,-6.3 RLU
same,RLU,Time 16 s,4.111 RLU
same,RLU,Time 18 s,11.3452 RLU
same,RLU,Time 18.781 s,-8.381 RLU
same,RLU,Time 20.781 s,-65.4734 RLU
same,RLU,Time 22.781 s,-29.3432 RLU
same,RLU,Time 24.781 s,49.9011 RLU
same,RLU,Time 26.781 s,96.1968 RLU
same,RLU,Time 28.781 s,184.074 RLU
same,RLU,Time 30.781 s,256.685 RLU
same,RLU,Time 32.781 s,311.082 RLU
same,RLU,Time 34.781 s,379.127 RLU
same,RLU,Time 36.781 s,406.227 RLU
same,RLU,Time 38.781 s,484.171 RLU
same,RLU,Time 40.781 s,488.749 RLU
same,RLU,Time 42.781 s,562.235 RLU
same,RLU,Time 44.781 s,571.006 RLU
same,RLU,Time 46.781 s,594.154 RLU
same,RLU,Time 48.781 s,570.694 RLU
same,RLU,Time 50.781 s,587.34 RLU
same,RLU,Time 52.781 s,583.343 RLU
same,RLU,Time 54.781 s,607.705 RLU
same,RLU,Time 56.781 s,600.065 RLU
same,RLU,Time 58.781 s,617.139 RLU
same,RLU,Time 60.781 s,617.101 RLU
same,RLU,Time 62.781 s,619.569 RLU
same,RLU,Time 64.781 s,627.557 RLU
same,RLU,Time 66.781 s,602.719 RLU
same,RLU,Time 68.781 s,631.839 RLU
same,RLU,Time 70.781 s,609.358 RLU
same,RLU,Time 72.781 s,606.454 RLU
same,RLU,Time 74.781 s,603.445 RLU
same,RLU,Time 76.781 s,621.396 RLU
same,RLU,Time 78.781 s,618.749 RLU
same,RLU,Time 80.781 s,605.728 RLU
same,RLU,Time 82.781 s,588.632 RLU
same,RLU,Time 84.781 s,592.001 RLU
same,RLU,Time 86.781 s,573.367 RLU
same,RLU,Time 88.781 s,587.481 RLU
same,RLU,Time 90.781 s,582.427 RLU
same,RLU,Time 92.781 s,543.758 RLU
same,RLU,Time 94.781 s,568.088 RLU
same,RLU,Time 96.781 s,550.308 RLU
same,RLU,Time 98.781 s,566.578 RLU
same,RLU,Time 100.781 s,550.017 RLU
same,RLU,Time 102.781 s,549.55 RLU
same,RLU,Time 104.781 s,541.673 RLU
same,RLU,Time 106.781 s,534.917 RLU
same,RLU,Time 108.781 s,501.47 RLU
same,RLU,Time 110.781 s,477.052 RLU
same,RLU,Time 112.781 s,487.765 RLU
same,RLU,Time 114.781 s,493.52 RLU
same,RLU,Time 116.781 s,450.802 RLU
same,RLU,Time 118.781 s,454.358 RLU
same,RLU,Time 120.781 s,451.439 RLU
same,RLU,Time 122.781 s,430.145 RLU
same,RLU,Time 124.781 s,453.415 RLU
same,RLU,Time 126.781 s,442.632 RLU
same,RLU,Time 128.781 s,400.74 RLU
same,RLU,Time 130.781 s,403.872 RLU
same,RLU,Time 132.781 s,393.75 RLU
same,RLU,Time 134.781 s,397.711 RLU
same,RLU,Time 136.781 s,397.074 RLU
same,RLU,Time 137.547 s,371.152 RLU
same,RLU,Time 143.547 s,348.952 RLU
same,RLU,Time 149.547 s,319.38 RLU
same,RLU,Time 155.547 s,291.839 RLU
same,RLU,Time 161.547 s,291.362 RLU
same,RLU,Time 167.547 s,251.037 RLU
same,RLU,Time 173.547 s,217.997 RLU
same,RLU,Time 179.547 s,213.168 RLU
same,RLU,Time 185.547 s,202.093 RLU
same,RLU,Time 191.547 s,176.088 RLU
same,RLU,Time 197.547 s,167.876 RLU
same,RLU,Time 203.547 s,164.283 RLU
same,RLU,Time 209.547 s,146.788 RLU
same,RLU,Time 215.547 s,144.843 RLU
same,RLU,Time 221.547 s,126.114 RLU
same,RLU,Time 227.547 s,89.1702 RLU
same,RLU,Time 233.547 s,107.472 RLU
same,RLU,Time 239.547 s,82.2731 RLU
same,RLU,Time 245.547 s,57.4201 RLU
same,RLU,Time 293.547 s,58.9267 RLU
same,RLU,Time 299.547 s,40.6004 RLU
same,RLU,"calcium trace, sheet TAS2R1, Time 305.547 s",58.5113 RLU
same,RLU,"calcium trace, sheet TAS2R1, Time 311.547 s",53.2069 RLU
same,RLU,"calcium trace, sheet TAS2R1, Time 317.547 s",43.3091 RLU
same,RLU,"calcium trace, sheet TAS2R1, Time 323.547 s",43.6147 RLU
same,RLU,"calcium trace, sheet TAS2R1, Time 329.547 s",33.081 RLU
same,RLU,"calcium trace, sheet TAS2R1, Time 335.547 s",47.1496 RLU
same,RLU,"calcium trace, sheet TAS2R1, Time 341.547 s",32.1596 RLU
same,RLU,"calcium trace, sheet TAS2R1, Time 347.547 s",48.6454 RLU
same,RLU,"calcium trace, sheet TAS2R1, Time 353.547 s",51.461 RLU
same,RLU,"calcium trace, sheet TAS2R1, Time 359.547 s",49.6251 RLU
same,Δ F/F,"conc. 0,01 mM, TAS2R1",0.004283
same,Δ F/F,"conc. 0,1 mM, TAS2R1",0.04907
same,Δ F/F,"conc. 0,03 mM, TAS2R1",0.009584
same,Δ F/F,"conc. 0,3 mM, TAS2R1",0.1325
same,Δ F/F,"conc. 0,001 mM, TAS2R1",0.006338
same,Δ F/F,"conc. 0,003 mM, TAS2R1",-0.001187
same,Activation threshold concentration TAS2R1,lowest concentration with significantly increased fluorescence vs empty vector (p < 0.01),100 µM and 100.00 µM
